Where no end group is shown, it is not given here.

We go through three compounds from patent publication US5532167A, “Substrate specificity of protein kinases” (Beth Israel Hospital, priority 1994, dated 1996).

The target in one assay is T1, EGF receptor (Homo sapiens, UniProt P00533).
T1 construct: made in house
Nature of the assay: Kinetics of EGF receptor phosphorylating synthetic peptide. The class given is biochemical. Particulars: peptide as substrate; 10 μM ATP, 10 mM MnCl2, pH 7.0. From the text: (§1) The degenerate peptide library constructed as described in Example 1, with either serine or tyrosine at the 7th position, was used as a substrate for several different protein kinases. Protein kinase A (bovine) was obtained commercially (Sigma). GST-cyclin B/p33^cdc2 (Atherton-Fessler et al. (1993) Mol. Cell. Biol. 13:1675-1685), GST-cyclinA/p33^CDK2 (Atherton-Fessler et al. (1993) Mol. Cell. Biol. 13:1675-1685), human EGF receptor, chicken pp60^v-src, polyoma virus middle T antigen/pp60^c-src (Piwnica-Worms et al. (1990) J. Virol. 64:61-68) and pp92^c-pfs/fes were expressed by baculoviruses. The baculovirus-expressed protein kinases were immobilized on protein A beads using precipitating antibodies or on glutathione-agarose bead for kinases obtained as GST fusion proteins to minimize the problem of separating the peptides from the enzyme or impurities in the enzyme. […]
(§2) The peptide sequences predicted to be optimal substrates for the cyclindependent serine/threonine kinases and for pp60^v-src tyrosine kinase were synthesized to determine whether they are indeed good substrates for these kinases. […] After 2 and a half minutes incubation, the supernatants were spotted on phosphocellulose paper (p81), washed four times with 75 mM phosphoric acid, and radioactivity counted on a scintillation counter. […] The Km and Vmax were calculated using the Kaleidagraph computer software.

Another assay deals with T2, cyclin A/p33^CDK2 (Homo sapiens, UniProt P24941).
T2 construct: made in house
Nature of the assay: Kinetics of cyclin A/p33CDK2 phosphorylating synthetic peptide. The class given is biochemical. Particulars: peptide as substrate; 10 μM ATP, 10 mM MgCl2, pH 7.0.
Excerpt: as §1, §2

For the next assay, the target named is PKA (Bos taurus, UniProt P00517). The conditions noted are these: relative to Kemptide; cited from earlier work.

A word on the Km: it is the substrate concentration at which the rate is half of its maximum. Take `CC[C@H](C)[C@H](NC(=O)[C@H](CCC(=O)O)NC(=O)[C@H](CCC(=O)O)NC(=O)[C@H](CCC(=O)O)NC(=O)[C@H](C)N)C(=O)N[C@@H](Cc1ccc(O)cc1)C(=O)NCC(=O)N[C@@H](CCC(=O)O)C(=O)N[C@@H](Cc1ccccc1)C(=O)N[C@@H](CCC(=O)O)C(=O)N[C@@H](C)C(=O)N[C@@H](CCCCN)C(=O)N[C@@H](CCCCN)C(=O)N[C@@H](CCCCN)C(=O)N[C@@H](CCCCN)C(=O)O` [AEEEIYGEFEAKKKK, Ala-Glu-Glu-Glu-Ile-Tyr-Gly-Glu-Phe-Glu-Ala-Lys-Lys-Lys-Lys]: the Km at EGF receptor was found to be 34 µM.

With “ARRPMSPKKKA [ARRPMSPKKKA, Ala-Arg-Arg-Pro-Met-Ser-Pro-Lys-Lys-Lys-Ala]”, the Km on cyclin A/p33^CDK2 amounted to 15 µM.

Consider “Optimal peptide substrate based on fragment of Walsh inhibitor: known PKA peptide substrate, sequence G R T G R R N S I, from the literature (GRTGRRNSI)”, for which the “fold lower KM than Kemptide” value with PKA is 40 fold.
